ChEMBL document CHEMBL2346578, “Substituted 1,6-diphenylnaphthalenes as FtsZ-targeting antibacterial agents” (2013)
Values after ≈ are worked out from the molar mass of the structure shown. Active and inactive are the calls of the source. The calls are words filed in the database; no cut-off is given here.

How the values were obtained:
Enterococcus faecalis [1] = test: Antibacterial activity against vancomycin-resistant Enterococcus faecalis ATCC 51575 assessed as growth inhibition by CLSI broth microdilution method; assay type: functional
Enterococcus faecalis [2] = test: microbe, parasite or virus in culture; assay type: functional; details: ATCC 19433
Description: Antibacterial activity against vancomycin-sensitive Enterococcus faecalis ATCC 19433 assessed as growth inhibition by CLSI broth microdilution method

Staphylococcus aureus [3] = test: Antibacterial activity against methicillin-sensitive Staphylococcus aureus 8325-4 assessed as growth inhibition by CLSI broth microdilution method; assay type: functional
Staphylococcus aureus [4] = test: microbe, parasite or virus in culture; assay type: functional; details: ATCC 33591
Description: Antibacterial activity against methicillin-resistant Staphylococcus aureus ATCC 33591 assessed as growth inhibition by CLSI broth microdilution method

[5] = target: T1, Cell division protein FtsZ (Staphylococcus aureus) (UniProt P0A031); test: Stimulation of Staphylococcus aureus ATCC 33591 FtsZ self-polymerization expressed in Escherichia coli BL21 (DE3) at 40 ug/mL by light scattering assay
T1 sequence (whole entry): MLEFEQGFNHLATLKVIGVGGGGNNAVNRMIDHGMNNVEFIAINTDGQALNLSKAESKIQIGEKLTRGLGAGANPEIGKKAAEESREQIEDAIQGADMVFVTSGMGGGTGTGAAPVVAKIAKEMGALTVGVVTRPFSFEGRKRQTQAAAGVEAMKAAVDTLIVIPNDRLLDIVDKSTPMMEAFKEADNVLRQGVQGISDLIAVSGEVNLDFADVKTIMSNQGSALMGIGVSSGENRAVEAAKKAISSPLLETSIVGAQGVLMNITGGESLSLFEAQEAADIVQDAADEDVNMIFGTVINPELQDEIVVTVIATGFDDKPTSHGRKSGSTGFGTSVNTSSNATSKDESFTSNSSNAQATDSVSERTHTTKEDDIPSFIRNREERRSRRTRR

[6] = target: Tubulin beta chain (Sus scrofa) (UniProt P02554); test: Stimulation of porcine MAP-rich beta-tubulin polymerization at 25 ug/mL by light scattering assay
Sequence of Tubulin beta chain (Sus scrofa) (P02554 whole entry): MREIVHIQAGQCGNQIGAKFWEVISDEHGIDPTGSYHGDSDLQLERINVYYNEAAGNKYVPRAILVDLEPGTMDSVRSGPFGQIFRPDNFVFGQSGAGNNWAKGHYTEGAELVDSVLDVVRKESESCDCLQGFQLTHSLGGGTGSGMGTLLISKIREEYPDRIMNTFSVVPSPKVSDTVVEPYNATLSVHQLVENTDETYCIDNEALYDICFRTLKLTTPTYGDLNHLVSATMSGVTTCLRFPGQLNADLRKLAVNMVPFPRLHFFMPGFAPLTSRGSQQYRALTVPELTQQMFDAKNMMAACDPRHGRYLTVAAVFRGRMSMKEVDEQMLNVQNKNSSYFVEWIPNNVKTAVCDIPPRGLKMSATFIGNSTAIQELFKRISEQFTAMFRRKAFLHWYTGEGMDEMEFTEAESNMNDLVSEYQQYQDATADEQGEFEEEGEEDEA

| Compound | MIC90 (Enterococcus faecalis [1]) | MIC90 (Enterococcus faecalis [2]) | MIC90 (Staphylococcus aureus [3]) | MIC90 (Staphylococcus aureus [4]) | Activity [5] | Activity [6] |
| --- | --- | --- | --- | --- | --- | --- |
| C[N+](C)(C)c1cccc(-c2ccc3c(-c4ccc(F)cc4)cccc3c2)c1.[I-] | 8 µg/mL | 8 µg/mL | 1 µg/mL | 4 µg/mL |  |  |
| NCc1cccc(-c2ccc3c(-c4cccc(-c5ccccc5)c4)cccc3c2)c1 | 8 µg/mL (≈ 20.8 µM) | 4 µg/mL (≈ 10.4 µM) | 2 µg/mL (≈ 5.19 µM) | 4 µg/mL (≈ 10.4 µM) |  |  |
| CC[C@H]1OC(=O)[C@H](C)[C@@H](O[C@H]2C[C@@](C)(OC)[C@@H](O)[C@H](C)O2)[C@H](C)[C@@H](O[C@@H]2O[C@H](C)C[C@H](N(C)C)[C@H]2O)[C@](C)(O)C[C@@H](C)C(=O)[C@H](C)[C@@H](O)[C@]1(C)O [ERYTHROMYCIN] | > 64 µg/mL | 1 µg/mL (≈ 1.36 µM) | 0.13 µg/mL (≈ 0.177 µM) | > 64 µg/mL |  |  |
| CC(C)(C)c1ccc(-c2cccc3cc(-c4ccccc4CN=C(N)N)ccc23)cc1 | 2 µg/mL (≈ 4.91 µM) | 2 µg/mL (≈ 4.91 µM) | 1 µg/mL (≈ 2.45 µM) | 1 µg/mL (≈ 2.45 µM) |  |  |
| COC(=O)c1ccc(-c2ccc3c(-c4ccc(C(C)(C)C)cc4)cccc3c2)c(CN=C(N)N)c1 | 4 µg/mL (≈ 8.59 µM) | 2 µg/mL (≈ 4.3 µM) | 1 µg/mL (≈ 2.15 µM) | 1 µg/mL (≈ 2.15 µM) |  |  |
| CCC[C@@H]1C[C@@H](C(=O)N[C@@H]([C@H]2O[C@H](SC)[C@H](O)[C@@H](O)[C@H]2O)[C@H](C)Cl)N(C)C1 [CLINDAMYCIN] | > 64 µg/mL | 2 µg/mL (≈ 4.71 µM) | 0.031 µg/mL (≈ 0.0729 µM) | > 64 µg/mL |  |  |
| C[N+](C)(C)c1cccc(-c2ccc3c(-c4ccc(C(F)(F)F)cc4)cccc3c2)c1.[I-] | 8 µg/mL | 8 µg/mL | 1 µg/mL | 4 µg/mL |  |  |
| Cc1ccccc1-c1ccc2c(-c3ccc(C(C)(C)C)cc3)cccc2c1 | > 64 µg/mL | > 64 µg/mL | > 64 µg/mL | > 64 µg/mL |  |  |
| CN[C@H](CC(C)C)C(=O)N[C@H]1C(=O)N[C@@H](CC(N)=O)C(=O)N[C@H]2C(=O)N[C@H]3C(=O)N[C@H](C(=O)N[C@H](C(=O)O)c4cc(O)cc(O)c4-c4cc3ccc4O)[C@H](O)c3ccc(c(Cl)c3)Oc3cc2cc(c3O[C@@H]2O[C@H](CO)[C@@H](O)[C@H](O)[C@H]2O[C@H]2C[C@](C)(N)[C@H](O)[C@H](C)O2)Oc2ccc(cc2Cl)[C@H]1O [VANCOMYCIN] | > 64 µg/mL | 1 µg/mL (≈ 0.69 µM) | 1 µg/mL (≈ 0.69 µM) | 2 µg/mL (≈ 1.38 µM) | inactive |  |
| C[N+](C)(C)c1ccc(-c2ccc3c(-c4ccc(-c5ccccc5)cc4)cccc3c2)cc1.[I-] | 2 µg/mL | 2 µg/mL | 1 µg/mL | 1 µg/mL |  |  |
| CC(C)(C)c1ccc(-c2cccc3cc(-c4ccc(C(=O)O)cc4CN)ccc23)cc1 | > 64 µg/mL | > 64 µg/mL | > 64 µg/mL | > 64 µg/mL |  |  |
| CC(=O)O[C@H]1C(=O)[C@@]2(C)[C@H]([C@H](OC(=O)c3ccccc3)[C@]3(O)C[C@H](OC(=O)[C@H](O)[C@@H](NC(=O)c4ccccc4)c4ccccc4)C(C)=C1C3(C)C)[C@]1(OC(C)=O)CO[C@@H]1C[C@@H]2O |  |  |  |  |  | Active |
| COc1ccc2c(c[n+](C)c3c4cc5c(cc4ccc23)OCO5)c1OC [CHELERYTHRINE] | 32 µg/mL | 32 µg/mL | 4 µg/mL | 4 µg/mL |  |  |
| COC(=O)c1ccc(-c2ccc3c(-c4ccc(C(C)(C)C)cc4)cccc3c2)c(CN)c1 | 16 µg/mL (≈ 37.8 µM) | 16 µg/mL (≈ 37.8 µM) | 2 µg/mL (≈ 4.72 µM) | 2 µg/mL (≈ 4.72 µM) |  |  |
| CC(C)(C)c1ccc(-c2cccc3cc(-c4cccc(N)c4)ccc23)cc1 | > 64 µg/mL | > 64 µg/mL | > 64 µg/mL | > 64 µg/mL |  |  |
| COC(=O)c1ccc(-c2ccc3c(-c4ccc(C(C)(C)C)cc4)cccc3c2)c(C[N+](C)(C)C)c1.[I-] | 8 µg/mL | 4 µg/mL | 1 µg/mL | 2 µg/mL |  |  |
| C[N+](C)(C)c1ccc(-c2ccc3c(-c4ccc(F)cc4)cccc3c2)cc1.[I-] | 4 µg/mL | 4 µg/mL | 4 µg/mL | 4 µg/mL |  |  |
| C[N+](C)(C)c1cccc(-c2ccc3c(-c4ccc(-c5ccccc5)cc4)cccc3c2)c1.[I-] | 4 µg/mL | 2 µg/mL | 0.5 µg/mL | 1 µg/mL |  |  |
